One assay relates to MEK1/2. Briefly: phospho-MEK1/2 western blot in mESCs under 200 mM sorbitol. Format: cell-based, mouse. The settings on record: returned to baseline by 20 min. The text has this: (§1) FIG. 14. […] Blots are representative of triplicate experiments. Phospho-proteins and their loading controls are grouped between black lines.
Hyperosmotic activation of signaling enzymes. […] Zhong, 2010; Xie, 2011. After screening 21 signaling kinases in 11 subfamilies using 14 inhibitors, 5 kinases in the mitogen activated protein kinase (MAPK) and PI3K families were identified as producing differentiation-priming effects in hyperosmotic conditions. To determine the kinetics of activation of these five kinases in the described system, mESCs were treated with 200 mM sorbitol for 1 hr. Expression levels of the activated (i.e., phosphorylated) enzymes were assayed by western blot analysis (FIG. 14), including phospho-p38MAPK, phospho-JNK, phospho-MEK1/2, and phospho-AKT (the downstream effector of PI3K signaling). Activated p38MAPK was 1st detected at 10 min of stimulation; activation persisted throughout 1 hr of stimulation. Similarly, activated JNK was 1st detected at 20 min of stimulation, and persisted throughout 1 hr of stimulation. Activated MEK1/2 and activated AKT were present endogenously at low levels at time zero; sorbitol stimulated higher activation levels of each.
In general terms: Immunoblotting shows a protein as a band on a membrane.

For assay [1], the system named is Rex1-RFP ESCs, Oct4-GFP ESCs. The assay is described as follows: Plate reader fluorescence of Rex1-RFP and Oct4-GFP reporter ESCs. Particulars: 3 days. The assay is classed as cell-based, mouse. As for the experimental part:
FIGS. 23A and 23B. Stress induces loss of Rex1-RFP but not Oct4-GFP after days of 200 mM sorbitol. Viable pluripotency reporter Rex1-RFP ESCs (FIG. 23A) or Oct4-GFP ESCs (FIG. 23B) were cultured in […] plates to 30% confluence. Cells were then treated with 200 mM of sorbitol as an osmotic stress for 3 days. Fluorescence was determined from live ESCs using a plate reader from 200 mM sorbitol treated cells was normalized with the non-sorbitol treated control cells. Four independent experiments were carried out and plotted here.
FIG. 24. Viable Rex1 promoter reporter responds with stress treatment in a dose-dependent manner in flow cytometry assay. mESCs expressing Rex1 promoter reporter were cultured in 12-well plates till 30% confluent. Cells were then treated with 200-300 mM of sorbitol in 25 mM increments for 3 days. After trypsinization cell suspensions were assayed by flow cytometry.
mESC culture and stimulation. […] Osmolality of ESC media with and without added 200 mM sorbitol was determined as in Example 2.
Fluorescence determination by plate reader of pluripotency reporters. mESCs that stably express Oct4-copGFP and/or Rex1-mApple promoter reporters were plated on 96-well plates at a starting confluence of 5%. Four identical plates were made for the time course study. Cells were grown for 24 hr in incubator till 10% confluence was reached; an addition of stimuli was designated time zero. The cells were stressed for a time period selected from 1, 2, or 3 days. At each time point, the medium was removed and the cells were rinsed with D-PBS. At 50 μl/well, ESCs were measured for fluorescence using the Synergy H1 microplate reader (BioTek, Winooski, VT). The excitation and detection wavelengths for Oct4-copGFP were 485 nm and 528 nm, respectively. The excitation and detection wavelengths for Rex1-mApple were 568 nm and 611 nm, respectively. After live-cell reading, the cells were lysed with 50 μL of lysis buffer (1% NP-40, 0.5% TX-100, 100 mM NaCl, 2 mM EDTA, 50 mM Tris-HCl, and pH 7.5) and measured for fluorescence with the same parameters above. After fluorescence determination, the cell lysates were further measured for total protein concentrations by adding 100 μl of Pierce BCA protein assay reagent (Thermo Scientific Inc.) following the manufacturer's instructions. Finally, the fluorescence readings from either live-cells or lysates were normalized to total protein concentration readings, in which higher readings represent higher pluripotency of the cells.

A further assay concerns the target p38MAPK (Mus musculus, UniProt P47811). Briefly: phospho-p38 western blot in mESCs under 200 mM sorbitol. Format: cell-based. The settings on record: 200 mM, persisted throughout 1 hr. As to the method: as §1
FIG. 15. […] Blots are representative of triplicate experiments.
Hyperosmotic activation of signaling enzymes. […] Zhong, 2010; Xie, 2011. […] To determine the kinetics of activation of these five kinases in the described system, mESCs were treated with 200 mM sorbitol for 1 hr. Expression levels of the activated (i.e., phosphorylated) enzymes were assayed by western blot analysis (FIG. 14), including phospho-p38MAPK, phospho-JNK, phospho-MEK1/2, and phospho-AKT (the downstream effector of PI3K signaling).
Efficacy of enzyme inhibitors.

For a further assay, the system named is TSCs. Briefly: qPCR of terminal differentiation markers in TSCs with or without 100 mM sorbitol. The assay is classed as cell-based, mouse. Particulars: 0.5% O2, 7 days. As to the method: . TSCs were cultured in 0-20% O2 for 0-7 days±FGF4 as indicated, rapidly frozen, and assayed for free ATP (n=4). (FIG. 6B) At 7 days, FGF4 absence increased terminal differentiation markers 8-20 fold at 20% O2, but lower differentiation levels at 0.5% O2 were not increased by a sorbitol dose, which induces high levels of differentiation at 20% O2. TSCs were cultured for 7 days±FGF4 at 20% or 0.5% O2±100 mM sorbitol. mRNA was purified and reverse transcribed, then analyzed for relative amounts of 3 terminal differentiation markers that were normalized to housekeeping mRNAs. Triplicate experiments are shown, with mean±s.e.m. (error bars). […]. (FIG. 6D) Correspondingly, at 7 days, mitochondrial Δψm increased only at O2≥2% with FGF4 removal. TSCs were cultured for 7 days at 20% O2 (a,d), 2% O2 (b,e), or 0.5% O2 (c,f) with FGF4 (a-c) or without FGF4 (d-f) and stained with JC1. Micron bar in micrograph (a) indicates […]. Green fluorescence indicates monomeric stain and low membrane charge and red fluorescence indicates polymeric stain and high charge. For original color fluorescence figures see (Xie, Stem Cell Research, 13:478, 2014 (Xie, 2014)).
RNA isolation and quantitative reverse transcription-PCR (qRT-PCR). […] Briefly, DNase-treated total RNA was isolated following cDNA preparation using QuantiTect Reverse Transcription Kit […] (Qiagen). […]
For orientation: Real-time PCR tracks product formation cycle by cycle.

One compound from patent publication US20250154611A1, “SYSTEMS AND METHODS TO DETECT STEM CELL STRESS AND USES THEREOF” (Wayne State University, priority 2014, published 2025) can be followed below.

A value given as a limit tells only on which side of the number the result lay.

Chain of p38MAPK (P47811 whole entry): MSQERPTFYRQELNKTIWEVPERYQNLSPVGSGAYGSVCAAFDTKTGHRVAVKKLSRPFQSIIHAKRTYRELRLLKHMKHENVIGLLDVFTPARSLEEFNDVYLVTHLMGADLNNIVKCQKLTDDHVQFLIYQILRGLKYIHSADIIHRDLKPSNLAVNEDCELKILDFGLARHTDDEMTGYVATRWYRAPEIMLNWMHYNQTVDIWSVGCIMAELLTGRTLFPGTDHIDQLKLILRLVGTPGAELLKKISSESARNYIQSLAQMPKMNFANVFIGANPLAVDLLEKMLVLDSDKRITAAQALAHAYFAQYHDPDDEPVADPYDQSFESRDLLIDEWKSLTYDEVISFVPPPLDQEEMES

Regarding `OC[C@@H](O)[C@@H](O)[C@H](O)[C@@H](O)CO` [sorbitol], the “time of increased MEK1/2 activation” value with MEK1/2 is at most 10 min. Moreover, the Rex1-RFP fluorescence result in assay [1] (200 mM, LIF present) is given as “significant loss”; in assay [1] (all doses 200-300 mM in 25 mM increments), “significant decrease”. Besides, in assay [1] (200 mM, LIF present), the “decrease in Rex1-RFP activity” value is 20%. The Oct4-GFP fluorescence result in assay [1] (200 mM, vs non-sorbitol control) is recorded as “not significantly different”. Moreover, the “time at which activated p38MAPK was first detected” value at p38MAPK is reported as 10 min. The “mRNA expression of terminal differentiation markers PL1, Plf, synTa” value in the assay on TSCs is “did not increase”.
